One compound from patent publication US20220047563A1, “COMBINATION THERAPY FOR THE TREATMENT OF ESTROGEN-RECEPTOR POSITIVE BREAST CANCER” (ZENITH EPIGENETICS LTD., priority 2018, published 2022) can be followed below.

Holding throughout (type): cell-based
Assay [1] has as its system Palbo-R-MCF7 cells. Description: Cell viability (CellTiter Fluor), combination of Compound I with abemaciclib, Palbo-R-MCF7. The settings on record: 7 days, average of CI at ED50, 75, 90 (Chou-Talalay). As for the experimental part:
(§1) MCF7, Palbo-R-MCF7, ZR-75-1, Abema-R MCF7, and Palbo-R ZR-75-1 cells were plated at a density of 7,500 cells per well in 96 well flat bottom plates in 1640-RPMI media containing 10% FBS and penicillin/streptomycin and incubated for 24 hours at 37° C., 5% CO2. Media was replaced with 1640-RPM I containing 10% FBS with constant ratios of either Compound I or abemaciclib as single agents, or a combination of both drugs at four different concentrations (2× IC50, 1× IC50, 0.5× IC50, 0.25× IC50), and incubated at 37° C., 5% CO2 for 7 days. The cells were retreated as described above on the 3rd or 4th day. Triplicate wells were used for each concentration and wells containing only media with 0.1% DMSO were used as a control. […] Fluorescence at 380-400 nm Excitation/505 nm Emission was read in a fluorometer and the percentage of cell titer relative to DMSO-treated cells was calculated after correcting for background by subtracting the blank well's signal. IC50 values for single agents were calculated using the GraphPad Prism software. Quantification of synergy was done by calculating combination indices (CI) using the CalcuSyn software (Biosoft) based on the Chou-Talalay algorithm (Chou and Talalay, 1984), and averaging the CI values for the effective doses (ED) 50, 75, and 90.

The subject of assay [2] is ZR-75-1 cells. The experiment in a line: Cell viability (CellTiter Fluor), combination of Compound I with abemaciclib, ZR-75-1. The settings on record: 7 days, average of CI at ED50, 75, 90 (Chou-Talalay). Here is the method: as §1
For assay [3], the system named is Abema-R MCF7 cells. The experiment in a line: Cell viability (CellTiter Fluor), combination of Compound I with abemaciclib, Abema-R MCF7. The following applies: 7 days, average of CI at ED50, 75, 90 (Chou-Talalay). Here is the method:
as §1

Assay [4] relates to Palbo-R ZR-75-1 cells. Description: Cell viability (CellTiter Fluor), combination of Compound I with abemaciclib, Palbo-R ZR-75-1. The settings on record: 7 days, average of CI at ED50, 75, 90 (Chou-Talalay). Here is the method:
as §1

Assay [5] deals with WT-MCF7 cells. Description: Cell viability (CellTiter Fluor), combination of Compound I with abemaciclib, WT-MCF7. The settings on record: 7 days, average of CI at ED50, 75, 90 (Chou-Talalay). Here is the method: as §1
In assay [6] the test system is WT-MCF7 cells. Description: Cell viability (CellTiter Fluor), combination of Compound I with fulvestrant, MCF7. The following applies: 7 days. Here is the method: MCF7 cells were plated at a density of 7,500 cells per well in 96 well flat bottom plates in phenol-red free 1640-RPMI media containing 10% charcoal-stripped FBS and penicillin/streptomycin and incubated for 24 hours at 37° C., 5% CO2. Media was replaced with phenol-red free 1640-RPM I media containing 10% charcoal-stripped FBS and penicillin/streptomycin treated with constant ratios of either Compound I or fulvestrant as single agents, or a combination of both drugs at four different concentrations (2× IC50, 1× IC50, 0.5× IC50, 0.25× IC50), and incubated at 37° C., 5% CO2 for 7 days. The cells were retreated as described above on the 3rd or 4th day. Triplicate wells were used for each concentration and wells containing only media with 0.1% DMSO were used as a control. […] Fluorescence at 380-400 nm Excitation/505 nm Emission was read in a fluorometer and the percentage of cell titer relative to DMSO-treated cells was calculated after correcting for background by subtracting the blank well's signal. IC50 values for single agents were calculated using the GraphPad Prism software. Quantification of synergy was done by calculating combination indices (CI) using the CalcuSyn software (Biosoft) based on the Chou-Talalay algorithm (Chou and Talalay, 1984), and averaging the CI values for the effective doses (ED) 50, 75, and 90.

The subject of assay [7] is MCF7, Palbo-R-MCF7, ZR-75-1, Abema-R MCF7, and Palbo-R ZR-75-1 cells. The experiment in a line: Cell viability (CellTiter Fluor), combination of Compound I with abemaciclib, ER+ breast cancer cell line panel. The following applies: 7 days. As for the experimental part:
as §1

Take `CNc1nc2ncc(-c3c(C)noc3C)cc2n1Cc1ccccc1` [Compound I, 1-benzyl-6-(3,5-dimethylisoxazol-4-yl)-N-methyl-1H-imidazo[4,5-b]pyridine-2-amine]: the “CI (combination index)” value was 0.20 in assay [1]; 0.14 in assay [2]; 0.30 in assay [3]; 0.35 in assay [4]; 0.08 in assay [5]; 0.51 in assay [6] (combination with fulvestrant, charcoal-stripped FBS, phenol-red free media, average of CI at ED50, 75, 90 (Chou-Talalay)). The “inhibition of cell viability, combination versus single agents” value in assay [6] (addition of Compound I to fulvestrant) is on record as “improved inhibition of cell viability compared to either single agent”; in assay [7] (addition of Compound I to abemaciclib, five cell lines), “improved inhibition of cell viability compared to either single agent”. Besides, the “average CI value” in assay [7] (combination with abemaciclib, depending upon the cell line (five cell lines)) is recorded as 0.08-0.35.
